The values that follow are results of earlier work, collected in patent US9597342B2 (UWM Research Foundation, Inc., priority 2011, dated 2017).

Broadly, the Ki is the dissociation constant of the complex between target and ligand, obtained from inhibition or displacement.

For series [1], the target named is all four diazepam-sensitive GABAA receptors. The settings on record: Huang et al., J. Med. Chem. 2000; cited from earlier work.
A further series concerns the target T1, GABAA/α5 receptors (Homo sapiens, UniProt P18507+P31644).
T1 sequence (P31644 32-462): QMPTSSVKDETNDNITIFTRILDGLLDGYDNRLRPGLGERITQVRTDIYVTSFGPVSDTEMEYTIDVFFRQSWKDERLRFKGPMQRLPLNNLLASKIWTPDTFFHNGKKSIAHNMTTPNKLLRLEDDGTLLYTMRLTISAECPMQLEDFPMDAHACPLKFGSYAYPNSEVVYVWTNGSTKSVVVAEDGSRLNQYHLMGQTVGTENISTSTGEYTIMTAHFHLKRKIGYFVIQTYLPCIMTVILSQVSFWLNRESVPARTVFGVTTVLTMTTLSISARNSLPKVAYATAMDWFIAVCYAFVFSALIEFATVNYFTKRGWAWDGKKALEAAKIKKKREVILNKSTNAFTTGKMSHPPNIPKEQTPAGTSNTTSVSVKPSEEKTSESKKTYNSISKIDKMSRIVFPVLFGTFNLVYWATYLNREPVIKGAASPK
T1 sequence (P18507 40-467 limits assumed): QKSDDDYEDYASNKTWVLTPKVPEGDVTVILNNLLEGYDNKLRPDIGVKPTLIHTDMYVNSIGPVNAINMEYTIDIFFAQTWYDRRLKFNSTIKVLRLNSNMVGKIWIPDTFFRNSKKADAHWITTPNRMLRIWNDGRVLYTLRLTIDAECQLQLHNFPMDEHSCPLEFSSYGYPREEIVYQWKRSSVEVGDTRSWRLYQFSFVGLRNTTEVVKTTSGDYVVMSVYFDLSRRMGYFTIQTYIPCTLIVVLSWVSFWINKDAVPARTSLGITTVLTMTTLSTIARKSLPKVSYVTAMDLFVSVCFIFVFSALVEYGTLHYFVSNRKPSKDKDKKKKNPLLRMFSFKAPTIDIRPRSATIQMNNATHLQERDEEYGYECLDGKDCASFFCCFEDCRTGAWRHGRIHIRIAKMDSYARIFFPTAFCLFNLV
T1 sequence (P28472 26-473 partner): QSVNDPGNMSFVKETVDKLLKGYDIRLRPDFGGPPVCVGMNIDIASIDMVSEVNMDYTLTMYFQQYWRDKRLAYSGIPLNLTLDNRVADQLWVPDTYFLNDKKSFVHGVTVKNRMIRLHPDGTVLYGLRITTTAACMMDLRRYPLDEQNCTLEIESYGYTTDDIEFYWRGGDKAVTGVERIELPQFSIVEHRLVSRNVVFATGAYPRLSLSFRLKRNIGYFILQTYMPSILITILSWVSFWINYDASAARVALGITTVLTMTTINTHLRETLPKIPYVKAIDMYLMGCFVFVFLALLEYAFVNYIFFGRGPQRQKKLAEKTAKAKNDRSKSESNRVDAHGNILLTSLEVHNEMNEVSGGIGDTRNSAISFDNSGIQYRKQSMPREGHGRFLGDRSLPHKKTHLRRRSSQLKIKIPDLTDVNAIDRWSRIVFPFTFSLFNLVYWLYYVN
The settings on record: high affinity; Huang et al., J. Med. Chem. 2000; cited from earlier work.

The target of another series is T2, GABAA/α2 (Homo sapiens, UniProt P18507+P47869).
T2 sequence (P47869 29-451): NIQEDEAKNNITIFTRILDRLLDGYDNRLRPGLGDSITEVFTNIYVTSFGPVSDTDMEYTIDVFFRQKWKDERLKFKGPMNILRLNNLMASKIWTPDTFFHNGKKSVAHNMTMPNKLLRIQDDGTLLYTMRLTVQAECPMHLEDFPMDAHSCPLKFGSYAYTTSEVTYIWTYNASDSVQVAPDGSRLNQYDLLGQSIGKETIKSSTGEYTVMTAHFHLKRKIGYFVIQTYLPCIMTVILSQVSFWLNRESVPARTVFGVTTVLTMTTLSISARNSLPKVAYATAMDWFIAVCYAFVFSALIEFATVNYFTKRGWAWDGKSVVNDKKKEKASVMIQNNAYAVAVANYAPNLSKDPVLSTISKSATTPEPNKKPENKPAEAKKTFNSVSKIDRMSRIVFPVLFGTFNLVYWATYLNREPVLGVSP
T2 sequence (P18507 40-467 limits assumed): T1 sequence (P18507 40-467 limits assumed)
T2 sequence (P28472 26-473 partner): T1 sequence (P28472 26-473 partner)
The settings on record: intermediate affinity; Huang et al., J. Med. Chem. 2000; cited from earlier work.

The next series deals with T3, GABAA/α3 (Homo sapiens, UniProt P18507+P34903).
T3 sequence (P34903 29-492): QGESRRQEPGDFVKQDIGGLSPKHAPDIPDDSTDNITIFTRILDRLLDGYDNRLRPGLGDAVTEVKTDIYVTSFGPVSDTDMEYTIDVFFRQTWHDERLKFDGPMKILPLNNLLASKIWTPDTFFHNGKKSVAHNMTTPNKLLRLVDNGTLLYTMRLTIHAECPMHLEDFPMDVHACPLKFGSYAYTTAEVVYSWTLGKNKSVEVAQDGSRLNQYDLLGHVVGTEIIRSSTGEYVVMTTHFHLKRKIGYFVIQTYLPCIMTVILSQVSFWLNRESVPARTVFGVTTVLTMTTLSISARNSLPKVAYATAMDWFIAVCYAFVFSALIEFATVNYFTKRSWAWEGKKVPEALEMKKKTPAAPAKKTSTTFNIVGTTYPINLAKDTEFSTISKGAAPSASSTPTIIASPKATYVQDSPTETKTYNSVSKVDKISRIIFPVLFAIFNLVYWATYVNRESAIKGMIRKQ
T3 sequence (P18507 40-467 limits assumed): T1 sequence (P18507 40-467 limits assumed)
T3 sequence (P28472 26-473 partner): T1 sequence (P28472 26-473 partner)
The settings on record: intermediate affinity; Huang et al., J. Med. Chem. 2000; cited from earlier work.

For a further series, the target named is T4, GABAA/α1 receptors (Homo sapiens, UniProt P14867+P18507).
T4 sequence (P14867 28-456): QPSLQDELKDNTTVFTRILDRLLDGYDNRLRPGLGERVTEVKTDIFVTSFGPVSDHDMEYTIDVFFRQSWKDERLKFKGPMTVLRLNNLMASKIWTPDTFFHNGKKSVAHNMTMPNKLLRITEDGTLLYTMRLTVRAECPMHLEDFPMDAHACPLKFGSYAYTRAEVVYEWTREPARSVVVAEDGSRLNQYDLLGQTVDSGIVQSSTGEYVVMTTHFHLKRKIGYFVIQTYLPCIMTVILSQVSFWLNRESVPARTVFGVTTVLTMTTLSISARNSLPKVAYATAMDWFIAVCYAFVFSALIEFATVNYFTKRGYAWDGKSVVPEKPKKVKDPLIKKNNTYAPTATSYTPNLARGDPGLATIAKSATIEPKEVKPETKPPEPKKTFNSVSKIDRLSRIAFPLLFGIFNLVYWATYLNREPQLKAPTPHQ
T4 sequence (P18507 40-467 limits assumed): T1 sequence (P18507 40-467 limits assumed)
T4 sequence (P28472 26-473 partner): T1 sequence (P28472 26-473 partner)
The settings on record: poorer affinity; Huang et al., J. Med. Chem. 2000; cited from earlier work.

On to `CN1C(=O)CN=C(c2ccccc2)c2cc(Cl)ccc21` [diazepam], for which the Ki in series [1] was < 0.025 µM.

As to `C#Cc1ccc2c(c1)C(c1ccccc1)=NCC(=O)N2C` [QH-ii-066], the inhibition constant Ki at GABAA/α5 receptors was < 0.01 µM; on GABAA/α2, < 0.05 µM; on GABAA/α3, < 0.05 µM; on GABAA/α1 receptors, > 0.07 µM.
